Reference: US20250134918A1, “COMPOSITIONS AND METHODS USING A NICOTINAMIDE ADENINE DINUCLEOTIDE (NAD+) PRECURSOR AND AT LEAST ONE KETONE OR KETONE PRECURSOR” (SOCIETE DES PRODUITS NESTLE S.A., priority 2018, published 2025)

System: human iPSC-derived astrocytes (homozygous ApoE 3 or homozygous ApoE4 genotype)
Test: Oxygen consumption (Seahorse XF96), FCCP-uncoupled maximal respiration
Assay type: cell-based
Conditions: hiPSC-derived astrocytes, ApoE3 (FIG. 6) and ApoE4 (FIG. 7); NR 0.5 mM for 24 hours; BHB 0.5 mM or 2 mM or BHP 2 mM for 1 h; FCCP 1 μM
Description: Differentiated human iPSC-derived astrocytes with either a homozygous ApoE 3 genotype or homozygous ApoE4 genotype (and otherwise isogenic) were obtained from Cellular Dynamics International (CDI, Madison, WI, USA). The cells were thawed according to the manufacturer's instructions. Astrocytes were cultured in DMEM supplemented with 10% fetal calf serum and N2 complement. Oxygen consumption in human iPSC-derived astrocytes was measured in a Seahorse XF96 instrument (Seahorse Bioscience, North Billerica, MA, USA). Astrocytes were seeded directly into Seahorse 96-well tissue culture plates (XF96 FluxPaks no. 102416-100; Seahorse Bioscience) at a density of 40,000 cells per well. Cells were incubated for 24 hours with 0.5 mM of Nicotinamide riboside chloride (NR) or fresh medium before experiment. Four days after seeding, the cells were washed twice in KRBH containing 1 mM glucose and incubated for 1 h with the ketone bodies BHB (racemic (D,L) BHB) or BHP (D BHP) at the concentration indicated. The cells were maintained at 37° C. during the experiment. Mitochondrial respiration rates were determined every 6 minutes. […] The oxygen consumption rate in hiPSC-derived astrocytes was measured as an indication of mitochondrial function, using a Seahorse instrument. Through addition of the uncoupling agent FCCP, uncoupled (=maximal) respiration was determined.

Compound: NC(=O)c1ccc[n+]([C@@H]2O[C@H](CO)[C@@H](O)[C@H]2O)c1 [NR, Nicotinamide riboside chloride]
- maximal respiration (uncoupled oxygen consumption rate): Neither ketone bodies alone nor NR treatment significantly increases maximal respiration
